Laboratory results as given in patent US20250295815A1, “PORPHYRIN-HYDROPORPHYRIN COMPOUNDS, COMPOSITIONS COMPRISING THE SAME AND METHODS OF USE THEREOF” (North Carolina State University, priority 2021, published 2025).

Columns and labels:
Type in all cases: physicochemical
[1] = Dyad photophysical properties in toluene, excited at 405 nm; design: ext coeff (abs max B) / brightness (abs max): unit not given here; details: for ext coeff (405 nm) / brightness (405 nm): at 405 nm; for ext coeff (405 nm) / FWHM / QY (x405) / abs max B / abs max Qx / abs max Qy / ext coeff (abs max B) / em max: room temperature; for ext coeff (405 nm): in M-1 cm-1 (unit assumed); for FWHM: emission peak; for FWHM / QY (x405) / em max: excited at 405 nm; for QY (x405): fluorescence quantum yield; for brightness (405 nm) / brightness (abs max): molar absorption coefficient x fluorescence quantum yield; for brightness (405 nm): in M⁻¹cm⁻¹; for brightness (abs max): at abs max
Procedure: (§1) The photophysical properties of samples were tested in toluene at room temperature and excited at 405 nm.

[2] = Fluorescence emission spectra in toluene (FIG. 5-8); details: for Brightness (molar absorption coefficient×fluorescence quantum yield): FIG. 7, same sample concentration, in M⁻¹cm⁻¹; for residual porphyrin emission in fluorescence spectrum: toluene, room temperature, FIG. 5, FIG. 6
Procedure: Emission spectra were collected in toluene at room temperature. […] P5-C3 contains a more rigid linker between chlorin and porphyrin than in P3-C1, which results in greater spatial separation of the two components and lower energy transfer.
Brightness (molar absorption coefficient×fluorescence quantum yield): 84,700 (P3-C1), 13,900 (P5-C3).
Emission spectra were collected using 0.5 uM solutions in toluene. Brightness (molar absorption coefficient×fluorescence quantum yield): 19,900 (P11-BC3 meso), 45,100 (P11-BC1 beta).

[3] = Brightness of hydroporphyrin monomers vs. porphyrin-hydroporphyrin dyads at 405 nm excitation; details: for fold change: brightness of dyad vs. corresponding hydroporphyrin monomer, 405 nm; for FWHM: emission peak narrowness; for QY (x405): fluorescence quantum yield in toluene at room temperature; for ext coeff (405 nm): molar absorption coefficient at 405 nm, in M-1 cm-1 (unit assumed); for brightness (405 nm): product of molar absorption coefficient at 405 nm and fluorescence quantum yield, in M⁻¹cm⁻¹; for brightness (405 nm) / abs max B / em max: toluene, room temperature
Procedure: Brightness was calculated using an excitation wavelength of 405 nm for a hydroporphyrin monomer having an emission wavelength of approximately 660, 680, 715, or 800 nm and for a fluorescent compound including a porphyrin and a hydroporphyrin structurally similar to the hydroporphyrin monomer. Brightness was calculated as the product of the molar absorption coefficient at 405 nm and the fluorescence quantum yield in toluene at room temperature. Table 3 provides the emission wavelength of the hydroporphyrin monomer and the corresponding dyad, the brightness of the hydroporphyrin monomer excited at 405 nm, the brightness of the dyad excited at 405 nm, and the fold change in brightness of the hydroporphyrin monomer compared to the brightness of the dyad.

[4] = Comparison porphyrin photophysical properties in toluene, excited at 405 nm; details: for ext coeff (405 nm) / brightness (405 nm): at 405 nm; for ext coeff (405 nm) / QY (x405) / abs max B / abs max Qx / em max / ext coeff (abs): room temperature; for ext coeff (405 nm) / ext coeff (abs): in M-1 cm-1 (unit assumed); for QY (x405): fluorescence quantum yield; for QY (x405) / em max: excited at 405 nm; for brightness (405 nm) / brightness (abs max): molar absorption coefficient x fluorescence quantum yield; for brightness (405 nm): in M⁻¹cm⁻¹; for brightness (abs max): at abs max
Procedure: as §1

COC(=O)c1ccc(-c2c3nc(cc4ccc(cc5nc(cc6[nH]c2cc6C#Cc2ccc(C6=C7C=CC(=N7)C=c7ccc8[n]7[Zn][n]7c(ccc76)C=C6C=CC(=N6)C=8)cc2)CC5(C)C)[nH]4)C=C3)cc1 [P8-C2, methyl ester]
ext coeff (405 nm) [1]: 241,700 | FWHM [1]: 15 nm | QY (x405) [1]: 0.33 | brightness (405 nm) [1]: 80,872 | brightness (abs max) [1]: 88,133 | abs max B [1]: 408 nm | abs max Qx [1]: 534 nm | abs max Qy [1]: 659 nm | ext coeff (abs max B) [1]: 263,400 | em max [1]: 661 nm

COC(=O)c1ccc(-c2c3nc(cc4[nH]c(cc5nc(cc6[nH]c2cc6-c2ccc(CNC(=O)c6ccc(-c7c8nc(cc9ccc([nH]9)c(-c9c(C)cc(C)cc9C)c9nc(cc%10ccc7[nH]%10)C=C9)C=C8)cc6)cc2)CC5(C)C)cc4-c2ccccc2)C=C3)cc1 [Dyad P3-C1]
ext coeff (405 nm) [1]: 350,200 | FWHM [1]: 18 nm | QY (x405) [1]: 0.24 | brightness (405 nm) [1]: 84,723 | brightness (abs max) [1]: 106,623 | abs max B [1]: 410 nm | abs max Qx [1]: 505 nm | abs max Qy [1]: 652 nm | ext coeff (abs max B) [1]: 440,633 | em max [1]: 656 nm | Brightness (molar absorption coefficient×fluorescence quantum yield) [2]: 84,700 | residual porphyrin emission in fluorescence spectrum [2]: no residual emission from the porphyrin

COC(=O)c1ccc(-c2c3nc(cc4ccc(cc5nc(cc6[nH]c2cc6C#Cc2ccc(-c6c7nc(cc8ccc([nH]8)c(-c8c(C)cc(C)cc8C)c8nc(cc9ccc6[nH]9)C=C8)C=C7)cc2)CC5(C)C)[nH]4)C=C3)cc1 [P7-C1; P6-C3]
ext coeff (405 nm) [1]: 227,900 | FWHM [1]: 15 nm | QY (x405) [1]: 0.21 | brightness (405 nm) [1]: 47,083 | brightness (abs max) [1]: 60,532 | abs max B [1]: 410 nm | abs max Qx [1]: 505 nm | abs max Qy [1]: 659 nm | ext coeff (abs max B) [1]: 293,000 | em max [1]: 660 nm

COC(=O)c1ccc(C2=c3ccc4[n]3[Zn][n]3c(ccc3C(c3ccc(C#Cc5ccc(C6=c7ccc8[n]7[Zn][n]7c(ccc7C=C7N=C(C=8)CC7(C)C)C=C7C=CC6=N7)cc5)cc3)=C3C=CC(=N3)C=4)C=C3C=CC2=N3)cc1 [P9-C4, methyl ester]
ext coeff (405 nm) [1]: 181,500 | FWHM [1]: 14 nm | QY (x405) [1]: 0.04 | brightness (405 nm) [1]: 8,055 | brightness (abs max) [1]: 11,570 | abs max B [1]: 414 nm | abs max Qx [1]: 540 nm | abs max Qy [1]: 607 nm | ext coeff (abs max B) [1]: 260,700 | em max [1]: 608 nm

COC(=O)c1ccc(-c2c3nc(cc4[nH]c(cc5nc(cc6[nH]c2cc6-c2ccc(CNC(=O)c6ccc(C7=C8C=CC(=N8)C=c8ccc9[n]8[Zn][n]8c(ccc87)C=C7C=CC(=N7)C=9)cc6)cc2)CC5(C)C)cc4-c2ccccc2)C=C3)cc1 [P2-C1, methyl ester]
ext coeff (405 nm) [1]: 346,400 | FWHM [1]: 18 nm | QY (x405) [1]: 0.25 | brightness (405 nm) [1]: 87,748 | brightness (abs max) [1]: 94,791 | abs max B [1]: 407 nm | abs max Qx [1]: 533 nm | abs max Qy [1]: 652 nm | ext coeff (abs max B) [1]: 374,100 | em max [1]: 656 nm | fold change [3]: 2.5 | FWHM [3]: 18 nm | QY (x405) [3]: 0.25 | ext coeff (405 nm) [3]: 346,400 | brightness (405 nm) [3]: 87,748 | abs max B [3]: 407 nm | em max [3]: 656 nm

COC(=O)c1c(C#Cc2ccc(-c3c4nc(cc5ccc(cc6nc(cc7ccc3[nH]7)C=C6)[nH]5)C=C4)cc2)c2cc3nc(c(OC)c4[nH]c(cc5nc(cc1[nH]2)CC5(C)C)c(C#Cc1ccc(-c2c5nc(cc6ccc(cc7nc(cc8ccc2[nH]8)C=C7)[nH]6)C=C5)cc1)c4C(=O)OC)CC3(C)C [Dyad P1-BC2]
ext coeff (405 nm) [1]: 325,400 | FWHM [1]: 31 nm | QY (x405) [1]: 0.19 | brightness (405 nm) [1]: 60,845 | brightness (abs max) [1]: 60,845 | abs max B [1]: 405 nm | abs max Qx [1]: 499 nm | abs max Qy [1]: 795 nm | ext coeff (abs max B) [1]: 325,400 | em max [1]: 804 nm | fold change [3]: 18.6 | FWHM [3]: 31 nm | QY (x405) [3]: 0.19 | ext coeff (405 nm) [3]: 325,400 | brightness (405 nm) [3]: 60,845 | abs max B [3]: 405 nm | em max [3]: 804 nm

COC(=O)c1ccc(C#Cc2cc3cc4nc(cc5[nH]c(cc6nc(c(OC)c2[nH]3)CC6(C)C)cc5C#Cc2ccc(-c3c5nc(cc6ccc(cc7nc(cc8ccc3[nH]8)C=C7)[nH]6)C=C5)cc2)CC4(C)C)cc1 [Dyad P1-BC1]
ext coeff (405 nm) [1]: 276,800 | FWHM [1]: 21 nm | QY (x405) [1]: 0.23 | brightness (405 nm) [1]: 64,405 | brightness (abs max) [1]: 64,405 | abs max B [1]: 405 nm | abs max Qx [1]: 529 nm | abs max Qy [1]: 760 nm | ext coeff (abs max B) [1]: 276,800 | em max [1]: 765 nm

Cc1cc(C)c(-c2c3nc(cc4ccc([nH]4)c(-c4ccc(C(=O)NCc5ccc(B6OC(C)(C)C(C)(C)O6)cc5)cc4)c4nc(cc5ccc2[nH]5)C=C4)C=C3)c(C)c1 [Dyad P3]
ext coeff (405 nm) [4]: 234,100 | QY (x405) [4]: 0.04 | brightness (405 nm) [4]: 9,628 | brightness (abs max) [4]: 12,560 | abs max B [4]: 409 nm | abs max Qx [4]: 503 nm | em max [4]: 702 nm | ext coeff (abs) [4]: 305,400

COC(=O)c1ccc(-c2c(C(=O)OC)c3cc4nc(cc5[nH]c(c(OC)c6nc(cc2[nH]3)C(C)(C)C6)c(C(=O)OC)c5C#Cc2ccc(C3=C5C=CC(=N5)C=c5ccc6[n]5[Zn][n]5c(ccc53)C=C3C=CC(=N3)C=6)cc2)C(C)(C)C4)cc1 [Dyad P8-BC2]
ext coeff (405 nm) [1]: 227,600 | FWHM [1]: 29 nm | QY (x405) [1]: 0.20 | brightness (405 nm) [1]: 46,569 | brightness (abs max) [1]: 52,298 | abs max B [1]: 408 nm | abs max Qx [1]: 538 nm | abs max Qy [1]: 769 nm | ext coeff (abs max B) [1]: 255,600 | em max [1]: 777 nm

CC1(C)OB(c2ccc(CNC(=O)c3ccc(C4=C5C=CC(=N5)C=c5ccc6[n]5[Zn][n]5c(ccc54)C=C4C=CC(=N4)C=6)cc3)cc2)OC1(C)C [Dyad P2]
ext coeff (405 nm) [4]: 209,100 | QY (x405) [4]: 0.03 | brightness (405 nm) [4]: 5,899 | brightness (abs max) [4]: 6,466 | abs max B [4]: 407 nm | abs max Qx [4]: 533 nm | em max [4]: 623 nm | ext coeff (abs) [4]: 229,200

COC(=O)c1ccc(-c2c3nc(cc4[nH]c(cc5nc(cc6[nH]c2cc6C#Cc2ccc(-c6c7nc(cc8ccc(cc9nc(cc%10ccc6[nH]%10)C=C9)[nH]8)C=C7)cc2)CC5(C)C)cc4C#Cc2ccc(-c4c5nc(cc6ccc(cc7nc(cc8ccc4[nH]8)C=C7)[nH]6)C=C5)cc2)C=C3)cc1 [Dyad P1-C6]
ext coeff (405 nm) [1]: 238,800 | FWHM [1]: 17 nm | QY (x405) [1]: 0.34 | brightness (405 nm) [1]: 80,567 | brightness (abs max) [1]: 81,579 | abs max B [1]: 406 nm | abs max Qx [1]: 499 nm | abs max Qy [1]: 680 nm | ext coeff (abs max B) [1]: 241,800 | em max [1]: 682 nm | fold change [3]: 6.4 | FWHM [3]: 17 nm | QY (x405) [3]: 0.34 | ext coeff (405 nm) [3]: 238,800 | brightness (405 nm) [3]: 80,567 | abs max B [3]: 406 nm | em max [3]: 682 nm

COC(=O)c1ccc(-c2c3nc(cc4ccc(cc5nc(cc6[nH]c2cc6C#Cc2ccc(CNC(=O)c6ccc(-c7c8nc(cc9ccc([nH]9)c(-c9c(C)cc(C)cc9C)c9nc(cc%10ccc7[nH]%10)C=C9)C=C8)cc6)cc2)CC5(C)C)[nH]4)C=C3)cc1 [Dyad P5-C3]
ext coeff (405 nm) [1]: 171,800 | QY (x405) [1]: 0.08 | brightness (405 nm) [1]: 13,934 | brightness (abs max) [1]: 17,413 | abs max B [1]: 409 nm | abs max Qx [1]: 504 nm | abs max Qy [1]: 657 nm | ext coeff (abs max B) [1]: 214,700 | em max [1]: 659 nm | Brightness (molar absorption coefficient×fluorescence quantum yield) [2]: 13,900 | residual porphyrin emission in fluorescence spectrum [2]: porphyrin emission is apparent

COC(=O)c1ccc(-c2c3nc(cc4ccc(cc5nc(cc6[nH]c2cc6C#Cc2ccc(CNC(=O)c6ccc(C7=C8C=CC(=N8)C=c8ccc9[n]8[Zn][n]8c(ccc87)C=C7C=CC(=N7)C=9)cc6)cc2)CC5(C)C)[nH]4)C=C3)cc1 [Dyad P4-C3]
ext coeff (405 nm) [1]: 318,900 | QY (x405) [1]: 0.07 | brightness (405 nm) [1]: 22,648 | brightness (abs max) [1]: 23,813 | abs max B [1]: 407 nm | abs max Qx [1]: 532 nm | abs max Qy [1]: 656 nm | ext coeff (abs max B) [1]: 335,300 | em max [1]: 659 nm
